Target: Methionine aminopeptidase 2 (Homo sapiens, UniProt P50579)
Assay: 10 mM stock solutions of compounds were prepared in 100% DMSO and further diluted in 100% DMSO required concentration to 1 mM stocks. The stock compound solutions and DMSO vehicle controls were diluted to target final compound concentrations using assay buffer to a final concentration of 50 mM HEPES containing 100 mM NaCl, pH adjusted to 7.5. The MAS peptide was formulated to a 7.5 mM stock in distilled water and prior to use further diluted 1:4. […] 40 μl of enzyme was mixed with 100 μl of MnCl2 then further diluted in assay buffer to a final concentration of 16 μg/ml. To test for compound effect on MetAP2 enzyme activity, 5 μl of test compound, 10 μl of MAS substrate/amino acid oxidase mixture, 10 μl of MetAP2 was added to test wells in a 384 well black plate with blank wells containing no enzyme, replaced with 10 μl of assay buffer. All compounds were tested in duplicate on two occasions on the same day. […] The plate was sealed with a TopSeal A cover and mixed briefly on an orbital mixer at 900 rpm. The plate was incubated for a further 25 minutes at 25° C. A 5× stock of Amplex buffer was prepared (0.25M sodium phosphate, pH 7.4) and stored at 4° C. […] 25 μl detection reagent was added to each well of the test plate, which was re-sealed and mixed briefly on an orbital shaker.

Methionine aminopeptidase 2, sequence (P50579 whole entry): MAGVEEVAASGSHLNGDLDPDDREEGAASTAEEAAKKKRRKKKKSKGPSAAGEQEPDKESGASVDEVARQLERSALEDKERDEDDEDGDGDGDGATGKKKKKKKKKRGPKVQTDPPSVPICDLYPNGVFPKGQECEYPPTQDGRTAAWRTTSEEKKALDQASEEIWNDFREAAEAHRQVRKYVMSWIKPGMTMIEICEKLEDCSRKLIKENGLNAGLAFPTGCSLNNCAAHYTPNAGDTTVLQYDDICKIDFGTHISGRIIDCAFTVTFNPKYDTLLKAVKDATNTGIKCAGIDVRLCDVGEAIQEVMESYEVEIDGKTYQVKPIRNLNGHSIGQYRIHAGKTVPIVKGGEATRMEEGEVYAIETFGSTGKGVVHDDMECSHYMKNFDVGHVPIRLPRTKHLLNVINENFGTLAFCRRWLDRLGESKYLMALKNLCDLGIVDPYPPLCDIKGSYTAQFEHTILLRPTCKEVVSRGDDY

IC50 [nM] | Structure (SMILES)
< 50 | CCN(CC)CCNC(=O)OCC1CN(C(=O)O[C@@H]2CC[C@]3(CO3)[C@@H]([C@@]3(C)O[C@@H]3CC=C(C)C)[C@@H]2OC)C1
< 50 | CO[C@@H]1[C@H](OC(=O)N2CC(CCN3CCCC3)C2)CC[C@]2(CO2)[C@H]1[C@@]1(C)O[C@@H]1CC=C(C)C

From ChEMBL document CHEMBL5725333, “Fumagillol heterocyclic compounds and methods of making and using same” (2017)
